{"source": "patent US20210386752A1", "about": "“Uses of Electron Transport Chain Complex I or Complex II Inhibitors in Treating Cancer, Combination Therapies, and Diagnostic Methods Related Thereto” (Emory University, priority 2020, published 2021)", "key": {"[1]": {"test_system": "non-MM cells contained within the aspirate", "procedure": "Bone marrow aspirate samples from 50 MM patients were treated with three doses of venetoclax (0.01, 0.1 and 0.5 μM) or TTFA (100 μM), or the combination for 24 h and cell death was assessed by AnnexinV staining.\nThe efficacy of IACS-010759 in sensitizing was tested in […] patient samples to venetoclax."}, "BIM binding to BCL-2": {"test_system": "BIM binding to BCL-2", "experiment": "Coimmunoprecipitation of BCL-2 and bound BIM", "assay_type": "cell-based", "details": "TTFA-treated KMS11 cells", "procedure": "The regulation of ATF4, BIM and NOXA in MM cells that were not sensitized by TTFA treatment were investigated. Whole-cell lysates were evaluated for total protein expression. Coimmunoprecipitations was performed to examine binding of BIM with antiapoptotic BCL-2 in KMS11 and the TTFA insensitive-t(11;14) KMS21BM cells. Induction of BIM and NOXA were observed upon TTFA treatment (FIG. 5J) only in KMS11 not in the TTFA insensitive-t(11;14) KMS21BM cells."}, "[2]": {"test_system": "MM lines (L363 and KMS11)", "experiment": "Colony-forming unit assay in agar matrix, TTFA-venetoclax cotreatment", "assay_type": "cell-based", "details": "L363 and KMS11, venetoclax 0.1 μM", "procedure": "(§1) Given the unique role of Complex II in directly connecting the TCA cycle to the ETC, the impact of selectively inhibiting either the SDH or SQR activities of Complex II on venetoclax sensitivity was tested. The venetoclax sensitization effects of TTFA (SQR inhibitor) or 3NPA (SDH inhibitor) were tested on eight venetoclax-resistant MM lines (FIG. 3A-3H). 3NPA is a structural analog of succinate, which binds irreversibly with SDH inhibiting FAD reduction and fumarate production while TTFA is a direct Qp site inhibitor. […] The efficacy of the TTFA-venetoclax cotreatment strategy was also tested in a colony-forming unit assay. MM lines (L363 and KMS11) were cultured in an agar matrix with single agents or the combination."}, "[3]": {"test_system": "venetoclax-resistant MM lines", "experiment": "Venetoclax sensitization of resistant MM lines by ETC inhibitor cotreatment, viability by AnnexinV/DAPI staining", "assay_type": "cell-based", "procedure": "Cell viability assessed by AnnexinV/DAPI staining.\nas §1\nTo further inquire whether Complex I inhibition could also sensitize MM cells to venetoclax, a Complex I inhibitor was tested ([…])."}, "[4]": {"test_system": "CD38+ CD45− gated MM cells from myeloma patient bone marrow aspirates", "experiment": "Ex vivo venetoclax sensitivity of myeloma patient samples, Annexin V staining", "assay_type": "cell-based, human", "protocol": "CD38-PE and CD45-APC-Cy7 were used to gate myeloma cells. n=50 biological independent samples.\nBone marrow aspirate samples from 50 MM patients were treated with three doses of venetoclax (0.01, 0.1 and 0.5 μM) or TTFA (100 μM), or the combination for 24 h and cell death was assessed by AnnexinV staining. […] A venetoclax ICso <0.1 μM is characterized as a sensitive sample.\nBone marrow aspirates or peripheral blood samples from consenting myeloma patients were diluted to 25 mL with PBS and over laid on lymphocyte separation media. Following centrifugation, the collected buffy coat was washed with PBS and resuspended in culture medium. Cells subject to various treatments were stained with anti-CD38-phyocerythrin and anti-CD45-allophycocyanin-Cy7 to identify MM cells. CD138+ cells were purified using MACS CD138+ human microbeads. IC50S of venetoclax alone or in combination with TTFA/IACS-010759 in myeloma samples were calculated using nonlinear regression (curve-fit) analysis under agonist vs. normalized response with variable slope."}, "[5]": {"biological_target": "T1, succinate dehydrogenase (SDH) (Homo sapiens, UniProt P31040)", "T1 construct": "endogenous in cells; host or cells: KMS11 multiple myeloma cells, permeabilized", "T1 sequence (P31040 43-664)": "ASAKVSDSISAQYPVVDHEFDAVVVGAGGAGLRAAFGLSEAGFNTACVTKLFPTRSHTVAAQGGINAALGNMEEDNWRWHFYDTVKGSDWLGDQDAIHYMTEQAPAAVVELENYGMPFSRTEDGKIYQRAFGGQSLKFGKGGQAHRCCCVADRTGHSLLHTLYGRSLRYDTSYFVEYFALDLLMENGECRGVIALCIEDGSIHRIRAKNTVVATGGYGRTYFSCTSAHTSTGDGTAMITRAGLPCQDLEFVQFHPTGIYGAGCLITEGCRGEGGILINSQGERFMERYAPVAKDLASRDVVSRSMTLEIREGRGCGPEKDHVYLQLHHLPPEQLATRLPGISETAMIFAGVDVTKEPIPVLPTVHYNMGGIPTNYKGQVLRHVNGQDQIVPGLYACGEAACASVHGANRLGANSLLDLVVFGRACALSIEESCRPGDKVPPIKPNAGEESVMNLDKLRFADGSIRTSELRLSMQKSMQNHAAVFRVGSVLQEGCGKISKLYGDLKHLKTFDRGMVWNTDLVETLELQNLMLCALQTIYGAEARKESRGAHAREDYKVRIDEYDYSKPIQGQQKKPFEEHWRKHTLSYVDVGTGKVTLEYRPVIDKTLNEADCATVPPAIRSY", "T1 sequence (P21912 29-280 partner)": "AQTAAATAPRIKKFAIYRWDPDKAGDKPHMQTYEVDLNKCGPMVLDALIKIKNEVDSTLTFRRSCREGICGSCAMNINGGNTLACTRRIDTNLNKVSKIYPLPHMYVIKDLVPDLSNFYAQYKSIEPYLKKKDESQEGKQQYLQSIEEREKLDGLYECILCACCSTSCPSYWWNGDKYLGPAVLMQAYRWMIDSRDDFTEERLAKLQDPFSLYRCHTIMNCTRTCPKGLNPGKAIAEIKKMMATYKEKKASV", "T1 sequence (Q99643 30-169 partner)": "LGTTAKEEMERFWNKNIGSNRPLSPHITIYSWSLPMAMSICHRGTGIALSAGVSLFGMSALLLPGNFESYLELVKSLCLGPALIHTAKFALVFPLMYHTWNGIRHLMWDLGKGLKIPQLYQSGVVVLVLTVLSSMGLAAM", "T1 sequence (O14521 57-159 partner)": "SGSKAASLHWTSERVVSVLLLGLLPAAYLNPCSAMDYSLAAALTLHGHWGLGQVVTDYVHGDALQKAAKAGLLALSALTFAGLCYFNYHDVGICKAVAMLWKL", "experiment": "SDH activity assay in permeabilized cells", "assay_type": "biochemical", "details": "TTFA-treated KMS11 cells", "excerpt": "Given reduced oxygen consumption rates (OCR) in sensitive cells, the activities of mitochondrial Complex I and II were examined. Mitochondrial Complex I and II receive electrons from the electron donors NADH or FADH2 respectively, that are transferred to the terminal electron acceptor (O2) via a series of redox reactions. Complex I or NADH:Coenzyme Q:oxidoreductase is the largest multimeric respiratory complex of ETC comprised of over 40 subunits with its catalytic subunit containing the NADH binding site. Electrons from NADH are transferred to FMN and then to FeS clusters and finally to ubiquinone where ubiquinone is reduced to ubiquinol. Complex II is the only enzyme that has a direct role both in the TCA cycle and ETC. […] Complex I activity was measured using an assay that relies on immunocapture of Complex I from freshly prepared cellular protein extracts. The NADH dehydrogenase activity of immunocaptured Complex I was determined by the oxidation of NADH and simultaneous reduction of the provided dye resulting in increase in absorbance. SDH and SQR activities were measured in live permeabilized cells, containing intact mitochondria pretreated with inhibitors of Complex I (rotenone), Complex III (antimycin) and Complex IV (sodium azide), allowing for selective measurement of SQR or SDH activity. […]"}, "ATF4, NOXA": {"test_system": "ATF4, NOXA", "experiment": "Immunoblot of whole cell lysates for ATF4 and NOXA", "assay_type": "cell-based", "details": "100 μM TTFA, 24 h, MM cells"}}, "data": [{"smiles": "O=C(CC(=O)C(F)(F)F)c1cccs1", "note": "[TTFA, 4,4,4-trifluoro-1-(2-thienyl)-1,3-butanedione]", "values": [{"measurement": "viability of non-MM cells", "setting": "[1]", "value": "no to minimal impact on viability"}, {"measurement": "BIM binding to BCL-2", "setting": "BIM binding to BCL-2", "value": "elevated BIM binding to BCL-2"}, {"measurement": "sensitization to venetoclax, cellular viability in colony-forming unit assay", "setting": "[2]", "value": "sensitized MM lines to a lower dose of venetoclax"}, {"measurement": "sensitization to venetoclax", "setting": "[3]; KMS21BM, TTFA at 100 μM", "value": "does not sensitize these cells to venetoclax"}, {"measurement": "sensitization to venetoclax", "setting": "[3]; L363, TTFA 100 μM, 24 h", "value": "sensitizes myeloma cell line L363 to venetoclax more effectively than inhibition of SDHA with 3-NPA"}, {"measurement": "sensitivity to venetoclax on cotreatment", "setting": "[3]; eight venetoclax-resistant MM lines, 24 h", "value": "increased sensitivity to venetoclax in six of the eight lines tested"}, {"measurement": "cell death with combination", "setting": "[4]; 100 μM TTFA plus 0.1 μM venetoclax, 24 h, 50 patient samples", "value": "significantly more cell death"}, {"measurement": "samples sensitized (venetoclax IC50 <0.1 μM)", "setting": "[4]; 100 μM TTFA, 15 of 50 samples", "value": 30, "unit": "%"}, {"measurement": "samples with more than a 50% decrease in venetoclax IC50", "setting": "[4]; 100 μM TTFA, 31 of 50 samples", "value": 62, "unit": "%"}, {"measurement": "samples with increased venetoclax sensitivity (IC50 Ven+TTFA vs Ven)", "setting": "[4]; 100 μM TTFA, 46 of 50 samples", "value": 92, "unit": "%"}, {"measurement": "samples with greater than 50% reduction in venetoclax IC50", "setting": "[4]; of ten ex vivo resistant samples, TTFA treatment", "value": "seven samples"}, {"measurement": "reduction in venetoclax IC50", "setting": "[4]; t(11;14) patient relapsed on venetoclax, TTFA treatment", "value": "more than tenfold reduction"}, {"measurement": "increased sensitivity to venetoclax", "setting": "[4]; ten ex vivo resistant samples with high SQR activity, TTFA treatment", "value": "all ten resistant samples showed increased sensitivity"}, {"measurement": "SDH activity", "setting": "[5]", "value": "remained unaffected"}, {"measurement": "protein expression of ATF4, NOXA", "setting": "ATF4, NOXA", "value": "Increased expression of ATF4, NOXA"}]}]}
